Test results as given in patent US11065300B2, “Immunomodulator for hypersensitivity reaction to house dust mite-derived allergen” (MD HEALTHCARE INC., priority 2016, dated 2021).

Tested on: macrophage RAW264.7
Test: IL-6 and TNF-alpha secretion by macrophages given MicA sRNA Salmonella vesicles mixed with PMB
Format: cell-based
Experimental: Salmonella-derived vesicles themselves have good immunogenicity, but toxicity due to LPS present in the extracellular membrane is a problem. In order to solve this problem, the induction level of innate immune response was evaluated by mixing PMB inhibiting the activity of LPS with vesicles derived from Salmonella overexpressing Mic A sRNA.
Specifically, inflammatory cells (macrophage RAW264.7, 5×10^5 cells/well) were cultured in DMEM comprising 10% FBS and antibiotics (100 units/ml penicillin and 100 μg/ml streptomycin) for 24 hours at 37° C. 24 well tissue culture plate (TPP). After the medium was removed, extracellular vesicles comprising PMB were changed to serum-free DMEM medium added at a concentration of 1 ug/ml. After 15 hours, secretion of IL-6 and TNF-alpha was measured in inflammatory cells.
In order to determine the optimum PMB dilution concentration, in the above method, the PMB concentration was subdivided into 1, 2, 4, 8, and 10 ug/ml and administered to the macrophages together with the vesicles.

## polymyxin B [PMB]
PMB 1 μg/ml or 10 μg/ml mixed with vesicles 1 ug/ml, RAW264.7, 15 hours
  IL-6 secretion: decreased
PMB 10 μg/ml mixed with vesicles 1 ug/ml, RAW264.7, 15 hours
  TNF-alpha secretion: inhibited
PMB 1, 2, 4, 8 and 10 ug/ml with vesicles, RAW264.7
  PMB concentration above which secretion of IL-6 no longer decreased: 2 µg/mL
